Measurements: PMC10772524 (Haematologica, 2023)

Assays:
[1] = tested on: CYP3A4; settings: also substrates for CYP3A4; ref not given; cited from earlier work
[2] = tested on: peripheral T-cell lymphoma (PTCL); settings: PTCL patients; cited from earlier work
[3] = tested on: patients with relapsed/refractory T-cell lymphoma; test: Safety and tolerability of tenalisib plus romidepsin; type: in vivo, human; settings: for Patients with three or more drug interruptions: during the combination treatment; for Patients with drug interruptions / Patients with dose reductions: overall, during combination treatment; for Patients with drug interruptions: PTCL and CTCL groups
[4] = Plasma pharmacokinetics of tenalisib, IN0385 and romidepsin; type: in vivo, human; settings: oral, all three cohorts
[5] = tested on: patients; settings: cited from earlier work

| SMILES | CYP3A4 inhibition [1] | CR rate with monotherapy [2] [%] | Patients with three or more drug interruptions [3] [%] | MTD/RP2D dose (recommended dose for dose expansion) in the combination ([3]; orally twice daily (BID), with romidepsin) [mg] | Patients with drug interruptions [3] [%] | Patients with dose reductions [3] [%] | Absorption [4] | Discontinuation rates due to adverse events, single agent studies [5] | MTD/RP2D dose (recommended dose for dose expansion) in the combination ([3]; intravenous, days 1, 8, 15 of 28-day cycle, with tenalisib) [mg/m^2] |
| --- | --- | --- | --- | --- | --- | --- | --- | --- | --- |
| CC[C@H](Nc1ncnc2[nH]cnc12)c1oc2ccccc2c(=O)c1-c1cccc(F)c1 [tenalisib] | moderate inhibitors | 20.0 | 12.1 | 800 | 60.6 | 27.3 | rapidly absorbed | – | – |
| C/C=C1\NC(=O)[C@H]2CSSCC/C=C/[C@H](CC(=O)N[C@H](C(C)C)C(=O)N2)OC(=O)[C@H](C(C)C)NC1=O [romidepsin, reference compound] | – | 14 | 24.2 | – | 63.6 | 33.3 | – | 19-28% | 14 |
